The test system of assay [1] is K. pneumoniae 156319 expressing KPC-3. Description: Broth microdilution MIC, K. pneumoniae 156319 KPC-3. Conditions: fixed 4 μg/mL meropenem; CAMHB, 16-20 hours at 37° C. The class given is cell-based. An outline of the steps:
(§1)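 Visual MIC readout follows 16-20 h incubation at 37° C. Final compound range spans 32 down to 0.25 μg/ml in two-fold steps, each well also carrying a β-lactam at a static 4 μg/ml, with inoculation done by the CLSI microdilution method in cation-adjusted Mueller Hinton broth.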

Assay [2] concerns the target T1, SHV-5 β-lactamase (Class A ESBL) (Klebsiella pneumoniae, UniProt P0A3M1).
T1 construct: made in house; host or cells: E. coli BL21(DE3)
As to the kind of experiment: β-Lactamase inhibition, SHV-5. The format is biochemical. An outline of the steps:
(§2)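 IC50 is the inhibitor level cutting initial substrate hydrolysis rate by 50% relative to no-inhibitor controls, after 15 min enzyme–inhibitor preincubation at 37 °C. KPC-2 read with imipenem at 300 nm, SHV-5 with cefotaxime at 260 nm; enzymes were untagged, E. coli-expressed, chromatographically purified.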

Assay [3] addresses T2, KPC-2 β-lactamase (Class A carbapenemase) (Klebsiella pneumoniae, UniProt Q9F663).
T2 construct: made in house; host or cells: E. coli BL21(DE3)
As to the kind of experiment: β-Lactamase inhibition, KPC-2. Particulars: imipenem substrate, 300 nm; 15 min preincubation at 37° C., PBS pH 7.4. The class given is biochemical. An outline of the steps: as §2

Assay [4] deals with E. cloacae 144200 expressing Class C P99 AmpC. Description: Broth microdilution MIC, E. cloacae 144200 p99 AmpC. The format is cell-based. Conditions: fixed 4 μg/mL ceftazidime; CAMHB, 16-20 hours at 37° C. An outline of the steps: as §1
For assay [5], the target named is T3, OXA-1 β-lactamase (Class D oxacillinase) (Escherichia coli, UniProt P13661).
T3 construct: made in house; host or cells: E. coli BL21(DE3)
T3 sequence (P13661 26-276): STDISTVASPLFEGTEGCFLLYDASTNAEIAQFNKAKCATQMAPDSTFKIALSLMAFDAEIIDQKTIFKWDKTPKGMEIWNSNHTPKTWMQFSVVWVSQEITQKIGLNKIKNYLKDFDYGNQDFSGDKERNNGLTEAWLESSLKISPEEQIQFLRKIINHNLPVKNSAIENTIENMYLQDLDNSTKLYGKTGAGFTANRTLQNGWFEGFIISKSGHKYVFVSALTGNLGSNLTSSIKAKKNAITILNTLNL
Description: β-Lactamase inhibition, OXA-1. The format is biochemical. Particulars: nitrocefin 100 μM, 486 nm; 15 min preincubation at 37° C., PBS pH 7.4. Here is the method: For SHV-5, Kpc-2, p99AmpC and OXA-1 β-lactamases, E. coli BL21(DE3) bacterial cells carrying expression plasmids (expressed as native untagged proteins) for the individual β-lactamases were grown in 1 L of Superbroth (Teknova Inc. Hollister, Calif.) supplemented with 100 μg/ml kanamycin selection and 1×5052 (0.5% glycerol, 0.05% glucose and 0.2% α-lactose) at 35° C. for 18-20 hours. Cells were harvested by centrifugation (4,000×g, 4° C., 20 min), resuspended in 50 ml of 10 mM HEPES pH 7.5 ( 1/20 of the initial volume). The cells were lysed by sonication (5 pulses of 45 seconds) at 45 W on ice. The lysates were clarified by centrifugation at 10,000×g for 40 minutes at 4° C. Samples were diluted 5-fold in 50 mM sodium acetate pH 5.0, stored overnight at 4° C., after which they were centrifuged at 10,000×g for 30 minutes to clarify, and filtered through 0.45 μm filters. The samples were loaded onto a 5 ml Capto S sepharose cation exchange column (GE Healthcare) pre-equilibrated with 50 mM sodium acetate pH 5.0. The column was washed with 5 column volumes of 50 mM sodium acetate pH 5.0 to wash out unbound protein and a linear gradient of NaCl (0 to 500 mM) was used to elute the protein (over 16 CV) from the column. Fractions were assayed for β-lactamase activity using Centa (Calbiochem, Gibbstown, N.J.) or Nitrocefin (EMD Millipore chemicals, Darmstadt, Germany) as a reporter β-lactamase substrate for activity in the isolated fractions. Active fractions were pooled, concentrated and further purified by gel filtration chromatography on a Superdex 75 prep grade gel filtration column (GE Healthcare, Piscataway, N.J.) pre-equilibrated in 50 mM Hepes pH 7.5, 150 mM NaCl. Active fractions were pooled concentrated, quantitated by BCA protein determination (Thermo Scientific, Rockford, Ill.), dialyzed into PBS and frozen at −80° C. in 20% glycerol until use.
An equal volume of diluted enzyme stock was added, and the plates were incubated at 37° C. for 15 min. Nitrocefin was used as substrate for p99 AmpC, VIM-2 and OXA-1 and dispensed into each well at a final concentration of 100 μM. Absorbance at 486 nm was immediately monitored for 10 min using a Biotek Powerwave XS2 microplate spectrophotometer using the GEN5 software package (Biotek Instruments, Winooski Vt.). In an analogous fashion, imipenem was used as substrate for Kpc-2 and Cefotaxime was used for SHV-5, while changes in absorbance upon hydrolysis of the β-lactam ring were monitored at 300 nm and 260 nm respectively in UV-transparent 96-well microtiter assay plates. Maximum rates of hydrolysis were compared to those in control wells (without inhibitors), and percentages of enzyme inhibition were calculated for each concentration of inhibitor. The concentration of inhibitor needed to reduce the initial rate of hydrolysis of substrate by 50% (IC50) was calculated as the residual activity of β-lactamase at 486 nm using GraFit version 7 kinetics software package (Erithacus Software, Surrey, UK).
Using the methodology described above, examples of the current invention were evaluated for their ability to inhibit β-lactamase enzymes from all four Ambler classifications (A through D). […] NT=Not tested.

Assay [6] concerns S. aureus MSSA-7 producing penicillinase PC-1. Description: Broth microdilution MIC, S. aureus MSSA-7 PC-1. The class given is cell-based. Conditions: fixed 4 μg/mL piperacillin; CAMHB, 16-20 hours at 37° C. The procedure, abridged: as §1
Assay [7] deals with T4, p99 AmpC β-lactamase (Class C) (Enterobacter cloacae, UniProt P05364).
T4 construct: made in house; host or cells: E. coli BL21(DE3)
T4 sequence (P05364 21-381): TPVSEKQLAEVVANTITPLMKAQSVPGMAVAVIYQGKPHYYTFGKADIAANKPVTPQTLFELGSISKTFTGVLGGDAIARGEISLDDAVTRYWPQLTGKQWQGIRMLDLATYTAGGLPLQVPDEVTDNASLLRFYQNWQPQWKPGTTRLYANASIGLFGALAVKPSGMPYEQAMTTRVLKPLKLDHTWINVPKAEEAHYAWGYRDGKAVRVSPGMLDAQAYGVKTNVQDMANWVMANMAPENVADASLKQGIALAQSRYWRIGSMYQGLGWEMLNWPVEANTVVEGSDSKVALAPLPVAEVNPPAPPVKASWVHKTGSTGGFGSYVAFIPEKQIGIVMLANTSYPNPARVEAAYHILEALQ
As to the kind of experiment: β-Lactamase inhibition, p99 AmpC. The format is biochemical.

The test system of assay [8] is E. coli ESBL4 expressing CTX-M-15. Description: Broth microdilution MIC, E. coli ESBL4 CTX-M-15. The format is cell-based. Conditions: fixed 4 μg/mL ceftazidime; CAMHB, 16-20 hours at 37° C. The procedure, abridged: as §1
Assay [9] has as its system K. pneumoniae A-1797 expressing KPC-2 and VIM-4. Description: Broth microdilution MIC, K. pneumoniae A-1797 KPC-2/VIM-4. The format is cell-based. Particulars: fixed 4 μg/mL meropenem; CAMHB, 16-20 hours at 37° C. An outline of the steps:
as §1

Assay [10] has as its system P. aeruginosa Ps296 expressing VIM-2. As to the kind of experiment: Broth microdilution MIC, P. aeruginosa Ps296 VIM-2. The class given is cell-based. Conditions: fixed 4 μg/mL meropenem; CAMHB, 16-20 hours at 37° C. The procedure, abridged: as §1
Assay [11] addresses T5, VIM-2 metallo-β-lactamase (Class B) (Pseudomonas aeruginosa, UniProt Q9K2N0).
T5 construct: made in house; host or cells: E. coli BL21(DE3)
As to the kind of experiment: β-Lactamase inhibition, VIM-2. The class given is biochemical. Conditions: nitrocefin 100 μM, 486 nm; 15 min preincubation at 37° C., PBS pH 7.4. An outline of the steps: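 Metallo-β-lactamase VIM-2 activity was tracked spectrophotometrically at 486 nm with 100 μM nitrocefin over 10 min, following 15 min preincubation with compound at 37 °C; inhibition was calculated per concentration.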

Each structure is given as a SMILES string. Bounds are passed on as bounds.

T2 sequence (Q9F663 25-293, looked up): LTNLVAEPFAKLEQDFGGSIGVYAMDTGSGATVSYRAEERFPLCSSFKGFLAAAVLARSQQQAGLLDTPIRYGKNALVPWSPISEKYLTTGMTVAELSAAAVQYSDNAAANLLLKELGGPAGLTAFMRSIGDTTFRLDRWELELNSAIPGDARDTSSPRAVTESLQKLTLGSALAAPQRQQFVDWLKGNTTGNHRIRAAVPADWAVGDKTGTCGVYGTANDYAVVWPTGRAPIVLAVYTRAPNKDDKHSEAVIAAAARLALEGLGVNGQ
T1 sequence (P0A3M1 22-286): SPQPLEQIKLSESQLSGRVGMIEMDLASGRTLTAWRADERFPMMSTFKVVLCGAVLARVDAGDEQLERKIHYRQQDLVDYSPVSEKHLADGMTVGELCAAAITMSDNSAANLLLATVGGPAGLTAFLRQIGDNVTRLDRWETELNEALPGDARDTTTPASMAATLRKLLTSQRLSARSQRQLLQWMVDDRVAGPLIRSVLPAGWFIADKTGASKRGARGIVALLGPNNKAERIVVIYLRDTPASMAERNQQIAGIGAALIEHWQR

Take `O=C(CN[C@@H]1CCNC1)N[C@H]1Cc2cccc(C(=O)O)c2OB1O` [Example 9, 2-Hydroxy-3-[2-(pyrrolidin-3-ylamino)-acetylamino]-3,4-dihydro-2H-benzo[e][1,2]oxaborinine-8-carboxylic acid]: the “MIC of example compound in presence of fixed β-lactam: Fixed Mero, K. P. 156319 KPC-3” value (“MIC of example compound … K. P. 156319 KPC-3” below) in assay [1] is on record as “C (the MIC in the presence of <4 μg/mL of a β-lactamase inhibitor)”. Besides, the IC50 was less than 0.1 µM in [2]; less than 0.1 µM in assay [3]; less than 0.1 µM in [5]; less than 0.1 µM in assay [7]; 10 to 100 µM in assay [11]. In [4], the “MIC of example compound in presence of fixed β-lactam: Fixed CAZ, E. cl. 144200 p99 AmpC” value (“MIC of example compound … E. cl. 144200 p99 AmpC” below) is “C (the MIC in the presence of <4 μg/mL of a β-lactamase inhibitor)”. Moreover, in assay [6], the “MIC of example compound in presence of fixed β-lactam: Fixed Pip, S. aureus MSSA-7 PC-1” value (shortened to “MIC of example compound … S. aureus MSSA-7 PC-1”) is given as “C (the MIC in the presence of <4 μg/mL of a β-lactamase inhibitor)”. In assay [8], the “MIC of example compound in presence of fixed β-lactam: Fixed CAZ, E. coli ESBL4 CTX-M-15” value (“MIC of example compound … E. coli ESBL4 CTX-M-15” below) is on record as “C (the MIC in the presence of <4 μg/mL of a β-lactamase inhibitor)”. Further, the “MIC of example compound in presence of fixed β-lactam: Fixed Mero, K. P. A-1797 KPC-2 VIM-4” value (shortened to “MIC … K. P. A-1797 KPC-2 VIM-4”) in assay [9] was “A (an MIC of the fixed β-lactam antibiotic in the presence of >32 μg/mL of a β-lactamase inhibitor)”. Also, the “MIC of example compound in presence of fixed β-lactam: Fixed Mero, P. aerug. Ps296 VIM-2” value (“MIC of example compound … P. aerug. Ps296 VIM-2” below) in assay [10] is given as “A (an MIC of the fixed β-lactam antibiotic in the presence of >32 μg/mL of a β-lactamase inhibitor)”.
For `N[C@@H]1CCCN(CC(=O)N[C@H]2Cc3cccc(C(=O)O)c3OB2O)C1` [Example 10, 3-[2-(R-3-Amino-piperidin-1-yl)-acetylamino]-2-hydroxy-3,4-dihydro-2H-benzo[e][1,2]oxaborinine-8-carboxylic acid], the “MIC of example compound … K. P. 156319 KPC-3” value in assay [1] is recorded as “C (the MIC in the presence of <4 μg/mL of a β-lactamase inhibitor)”. Moreover, the IC50 in assay [2] is less than 0.1 µM; in [3], 0.1 to 1 µM; in [5], 0.1 to 1 µM; in assay [7], less than 0.1 µM; in assay [11], 1 to 10 µM. Besides, the “MIC of example compound … E. cl. 144200 p99 AmpC” value in assay [4] is reported as “C (the MIC in the presence of <4 μg/mL of a β-lactamase inhibitor)”. The “MIC of example compound … S. aureus MSSA-7 PC-1” value in [6] is “B (the MIC in the presence of between 8 and 32 μg/mL of a β-lactamase inhibitor)”. Moreover, the “MIC of example compound … E. coli ESBL4 CTX-M-15” value in assay [8] is on record as “C (the MIC in the presence of <4 μg/mL of a β-lactamase inhibitor)”. Also, the “MIC … K. P. A-1797 KPC-2 VIM-4” value in [9] is “C (the MIC in the presence of <4 μg/mL of a β-lactamase inhibitor)”. Moreover, in [10], the “MIC of example compound … P. aerug. Ps296 VIM-2” value is reported as “A (an MIC of the fixed β-lactam antibiotic in the presence of >32 μg/mL of a β-lactamase inhibitor)”.
As for `N[C@H]1CCCN(CC(=O)N[C@H]2Cc3cccc(C(=O)O)c3OB2O)C1` [Example 11, 3-[2-(S-3-Amino-piperidin-1-yl)-acetylamino]-2-hydroxy-3,4-dihydro-2H-benzo[e][1,2]oxaborinine-8-carboxylic acid], in assay [1], the “MIC of example compound … K. P. 156319 KPC-3” value was “C (the MIC in the presence of <4 μg/mL of a β-lactamase inhibitor)”. The IC50 in assay [2] was less than 0.1 µM; in [3], 0.1 to 1 µM; in [5] it was 0.1 to 1 µM; in assay [7] it was less than 0.1 µM; in assay [11], 1 to 10 µM. In addition, in assay [4], the “MIC of example compound … E. cl. 144200 p99 AmpC” value is “C (the MIC in the presence of <4 μg/mL of a β-lactamase inhibitor)”. Moreover, in [6], the “MIC of example compound … S. aureus MSSA-7 PC-1” value is reported as “A (an MIC of the fixed β-lactam antibiotic in the presence of >32 μg/mL of a β-lactamase inhibitor)”. Besides, the “MIC of example compound … E. coli ESBL4 CTX-M-15” value in [8] is on record as “C (the MIC in the presence of <4 μg/mL of a β-lactamase inhibitor)”. The “MIC … K. P. A-1797 KPC-2 VIM-4” value in [9] is reported as “A (an MIC of the fixed β-lactam antibiotic in the presence of >32 μg/mL of a β-lactamase inhibitor)”. In [10], the “MIC of example compound … P. aerug. Ps296 VIM-2” value is on record as “A (an MIC of the fixed β-lactam antibiotic in the presence of >32 μg/mL of a β-lactamase inhibitor)”.
`O=C(CN1CCC(O)CC1)N[C@H]1Cc2cccc(C(=O)O)c2OB1O` [Example 12, 2-Hydroxy-3-[2-(4-hydroxy-piperidin-1-yl)-acetylamino]-3,4-dihydro-2H-benzo[e][1,2]oxaborinine-8-carboxylic acid]: the “MIC of example compound … K. P. 156319 KPC-3” value in assay [1] is on record as “C (the MIC in the presence of <4 μg/mL of a β-lactamase inhibitor)”. In addition, the IC50 in assay [2] is less than 0.1 µM; in assay [3] it was less than 0.1 µM; in assay [5], less than 0.1 µM; in assay [7] it was less than 0.1 µM; in assay [11] it was 0.1 to 1 µM. The “MIC of example compound … E. cl. 144200 p99 AmpC” value in [4] is recorded as “C (the MIC in the presence of <4 μg/mL of a β-lactamase inhibitor)”. Moreover, the “MIC of example compound … S. aureus MSSA-7 PC-1” value in [6] is “C (the MIC in the presence of <4 μg/mL of a β-lactamase inhibitor)”. Besides, in [8], the “MIC of example compound … E. coli ESBL4 CTX-M-15” value was “C (the MIC in the presence of <4 μg/mL of a β-lactamase inhibitor)”. Further, the “MIC … K. P. A-1797 KPC-2 VIM-4” value in [9] was “B (the MIC in the presence of between 8 and 32 μg/mL of a β-lactamase inhibitor)”. The “MIC of example compound … P. aerug. Ps296 VIM-2” value in [10] was “B (the MIC in the presence of between 8 and 32 μg/mL of a β-lactamase inhibitor)”.

The values above are taken from patent US10294248B2, “Beta-lactamase inhibitors” (VenatoRx Pharmaceuticals, Inc., priority 2013, dated 2019).
